For eleven compounds, DC50 and Dmax results are on record in US11427548B2 (Arvinas Operations, Inc., priority 2015, dated 2022).

Read-outs that look alike come from different tables or passages of the source.

The assay deals with T1, Androgen Receptor (Homo sapiens, UniProt P10275).
T1 construct: endogenous in cells; host or cells: VCaP cells
T1 sequence (P10275 1-920): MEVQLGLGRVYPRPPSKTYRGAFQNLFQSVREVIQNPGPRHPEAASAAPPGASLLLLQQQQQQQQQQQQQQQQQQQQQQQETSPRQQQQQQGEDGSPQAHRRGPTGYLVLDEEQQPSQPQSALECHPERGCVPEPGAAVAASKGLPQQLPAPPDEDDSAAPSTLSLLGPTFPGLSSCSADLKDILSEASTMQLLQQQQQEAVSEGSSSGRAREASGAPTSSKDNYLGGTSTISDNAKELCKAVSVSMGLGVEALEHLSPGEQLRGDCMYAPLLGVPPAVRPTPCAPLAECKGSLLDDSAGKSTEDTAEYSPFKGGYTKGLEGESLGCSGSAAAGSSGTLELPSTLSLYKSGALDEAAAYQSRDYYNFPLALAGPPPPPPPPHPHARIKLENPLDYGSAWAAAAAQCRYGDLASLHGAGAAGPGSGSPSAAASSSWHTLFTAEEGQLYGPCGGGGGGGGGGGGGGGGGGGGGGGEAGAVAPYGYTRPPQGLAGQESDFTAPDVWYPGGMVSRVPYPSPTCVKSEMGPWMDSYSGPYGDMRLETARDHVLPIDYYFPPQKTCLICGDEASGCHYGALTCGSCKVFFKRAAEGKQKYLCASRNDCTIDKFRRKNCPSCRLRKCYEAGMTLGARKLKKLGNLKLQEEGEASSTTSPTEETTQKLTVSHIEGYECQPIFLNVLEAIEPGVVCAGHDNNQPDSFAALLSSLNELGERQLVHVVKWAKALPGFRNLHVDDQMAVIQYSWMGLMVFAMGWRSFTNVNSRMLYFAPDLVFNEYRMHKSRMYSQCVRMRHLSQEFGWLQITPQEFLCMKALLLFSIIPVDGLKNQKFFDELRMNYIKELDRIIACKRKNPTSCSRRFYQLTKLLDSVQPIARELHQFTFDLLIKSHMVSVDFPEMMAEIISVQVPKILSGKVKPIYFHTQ
The assay can be described thus: Androgen Receptor ELISA assay (PathScan AR ELISA) in VCaP cells: AR degradation, Dmax and DC50. It is filed as cell-based. Put shortly:
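VCaP cells in phenol red-free RPMI with 5% charcoal-stripped FBS were grown at least 3 days, then given compound as 7 half-log doses in 0.1% DMSO with 0.1 nM R1881 for 24 h. Lysates went into a sandwich AR ELISA with TMB read at 450 nm.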
(In an ELISA, binding on a coated surface is turned into a signal by an enzyme label.)

Setting [1] is: VCaP cells; Table 36; read-out: VCaP DC50.
[2] abbreviates: VCaP, VCaP cells; Table 36; read-out: VCaP Dmax (%).

For orientation: DC50 means the concentration at which degradation of the target reaches its halfway point. As to `Cc1ncsc1-c1ccc([C@H](C)NC(=O)C2C[C@@H](O)CN2C(=O)[C@@H](NC(=O)CN2C[C@@H]3C[C@H]2CN3CCCc2ccc(C(=O)N[C@H]3C(C)(C)[C@H](Oc4ccc(C#N)c(Cl)c4)C3(C)C)cc2)C(C)(C)C)cc1` (stereo partly drawn) [Example 807, (2S,4R)-1-((S)-2-(2-((1R,4R)-5-(3-(4-(((1r,3R)-3-(3-chloro-4-cyanophenoxy)-2,2,4,4-tetramethylcyclobutyl)carbamoyl)phenyl)propyl)-2,5-diazabicyclo[2.2.1]heptan-2-yl)acetamido)-3,3-dimethylbutanoyl)-4-hydroxy-N-((S)-1-(4-(4-methylthiazol-5-yl)phenyl)ethyl)pyrrolidine-2-carboxamide], the DC50 under setting [1] is less than 50 nM. As a reminder, the Dmax is the largest share of the target that was removed. `Cc1ncsc1-c1ccc([C@H](C)NC(=O)[C@@H]2C[C@@H](O)CN2C(=O)[C@@H](NC(=O)CN2CC3CCC(C2)N3CCCc2ccc(C(=O)NC3C(C)(C)C(Oc4ccc(C#N)c(Cl)c4)C3(C)C)cc2)C(C)(C)C)cc1` (stereo partly drawn) [Example 808, (2S,4R)-1-((2S)-2-(2-(8-(3-(4-(((1r,3r)-3-(3-chloro-4-cyanophenoxy)-2,2,4,4-tetramethylcyclobutyl)carbamoyl)phenyl)propyl)-3,8-diazabicyclo[3.2.1]octan-3-yl)acetamido)-3,3-dimethylbutanoyl)-4-hydroxy-N-((S)-1-(4-(4-methylthiazol-5-yl)phenyl)ethyl)pyrrolidine-2-carboxamide]: the maximal degradation (Dmax) (VCaP, read-out: VCaP Dmax (%)) was in the range of 26 to 50%. The DC50 (read-out: VCaP DC50; VCaP cells; Table 36) is less than 50 nM. As to `Cc1ncsc1-c1ccc([C@H](C)NC(=O)[C@@H]2C[C@@H](O)CN2C(=O)[C@@H](NC(=O)CN2CCN(C3CC4(C3)CN(c3ccc(C(=O)N[C@H]5C(C)(C)[C@H](Oc6ccc(C#N)c(Cl)c6)C5(C)C)cn3)C4)CC2)C(C)(C)C)cc1` [Example 809, N-((1r,3r)-3-(3-chloro-4-cyanophenoxy)-2,2,4,4-tetramethylcyclobutyl)-6-(6-(4-(2-(((S)-1-((2S, 4R)-4-hydroxy-2-(((S)-1-(4-(4-methylthiazol-5-yl)phenyl)ethyl)carbamoyl)pyrrolidin-1-yl)-3,3-dimethyl-1-oxobutan-2-yl)amino)-2-oxoethyl)piperazin-1-yl)-2-azaspiro[3.3]heptan-2-yl)n icotinamide], the 50% degradation concentration (DC50) under setting [1] is less than 50 nM. Where the note is “VCaP, read-out: VCaP Dmax (%)”, the maximal degradation (Dmax) is more than 71%. The corresponding values for `Cc1ncsc1-c1ccc([C@H](C)NC(=O)C2C[C@@H](O)CN2C(=O)C(c2cc(OCCN(C)[C@H](C(=O)NC(C(=O)N3CCN(c4ccc(C(=O)NC5C(C)(C)C(Oc6ccc(C#N)c(Cl)c6)C5(C)C)cc4)CC3)C(C)C)C(C)C)no2)C(C)C)cc1` (stereo partly drawn) [Example 810, (2S,4R)-1-(2-(3-(2-(((S)-1-(((S)-1-(4-(4-(((1r,3S)-3-(3-chloro-4-cyanophenoxy)-2,2,4,4-tetramethylcyclobutyl)carbamoyl)phenyl)piperazin-1-yl)-3-methyl-1-oxobutan-2-yl)amino)-3-methyl-1-oxobutan-2-yl) (methyl)amino)ethoxy)isoxazol-5-yl)-3-methylbutanoyl)-4-hydroxy-N-((S)-1-(4-(4-methylthiazol-5-yl)phenyl)ethyl) pyrrolidine-2-carboxamide] are less than 50 nM and more than 71%. Consider `Cc1ncsc1-c1ccc([C@H](CO)NC(=O)[C@@H]2C[C@@H](O)CN2C(=O)[C@@H](NC(=O)COCCN2CCN(c3ccc(C(=O)N[C@H]4C(C)(C)[C@H](Oc5ccc(C#N)c(Cl)c5)C4(C)C)cn3)CC2)C(C)(C)C)cc1` [Example 812, N-((1r,3r)-3-(3-chloro-4-cyanophenoxy)-2,2,4,4-tetramethylcyclobutyl)-6-(4-(2-(2-(((S)-1-((2S, 4R)-4-hydroxy-2-(((R)-2-hydroxy-1-(4-(4-methylthiazol-5-yl)phenyl)ethyl)carbamoyl)pyrrolidin-1-yl)-3,3-dimethyl-1-oxobutan-2-yl)amino)-2-oxoethoxy)ethyl)piperazin-1-yl) nicotinamide], for which the DC50 under setting [1] is less than 50 nM. Besides, under setting [2], the Dmax was more than 71%. The corresponding values for `Cc1ncsc1-c1ccc([C@H](C)NC(=O)C2C[C@@H](O)CN2C(=O)[C@@H](NC(=O)COCCN2C[C@@H](C)N(c3ccc(C(=O)N[C@H]4C(C)(C)[C@H](Oc5ccc(C#N)c(Cl)c5)C4(C)C)cn3)[C@@H](C)C2)C(C)(C)C)cc1` (stereo partly drawn) [Example 813, N-((1r,3R)-3-(3-chloro-4-cyanophenoxy)-2,2,4,4-tetramethylcyclobutyl)-6-((2S,6R)-4-(2-(2-(((2S)-1-((4R)-4-hydroxy-2-(((S)-1-(4-(4-methylthiazol-5-yl)phenyl)ethyl)carbamoyl)pyrrolidin-1-yl)-3,3-dimethyl-1-oxobutan-2-yl)amino)-2-oxoethoxy)ethyl)-2,6-dimethylpiperazin-1-yl)nicotinamide] are less than 50 nM and more than 71%. As for `Cc1ncsc1-c1ccc([C@H](C)NC(=O)C2C[C@@H](O)CN2C(=O)C(NC(=O)CN2CC3(CC(N4CCN(c5ccc(C(=O)NC6C(C)(C)C(Oc7ccc(C#N)c(Cl)c7)C6(C)C)cn5)CC4)C3)C2)C(C)(C)C)cc1` (stereo partly drawn) [Example 814, N-((1r,3r)-3-(3-chloro-4-cyanophenoxy)-2,2,4,4-tetramethylcyclobutyl)-6-(4-(2-(2-(((S)-1-((2S, 4R)-4-hydroxy-2-(((S)-1-(4-(4-methylthiazol-5-yl)phenyl)ethyl)carbamoyl)pyrrolidin-1-yl)-3,3-dimethyl-1-oxobutan-2-yl)amino)-2-oxoethyl)-2-azaspiro [3.3]heptan-6-yl)piperazin-1-yl) nicotinamide], the half-maximal degradation concentration (DC50) under setting [1] is less than 50 nM. In addition, the maximal degradation (Dmax) under setting [2] lay in the range of 26 to 50%. Taken in the same sequence, the figures for `Cc1ncsc1-c1ccc([C@H](C)NC(=O)C2C[C@@H](O)CN2C(=O)C(NC(=O)COC(C)(C)CN2CCN(c3ccc(C(=O)NC4C(C)(C)C(Oc5ccc(C#N)c(Cl)c5)C4(C)C)cn3)CC2)C(C)(C)C)cc1` (stereo partly drawn) [Example 815, N-((1r,3r)-3-(3-chloro-4-cyanophenoxy)-2,2,4,4-tetramethylcyclobutyl)-6-(4-(2-(2-(((S)-1-((2S, 4R)-4-hydroxy-2-(((S)-1-(4-(4-methylthiazol-5-yl)phenyl)ethyl)carbamoyl)pyrrolidin-1-yl)-3,3-dimethyl-1-oxobutan-2-yl)amino)-2-oxoethoxy)-2-methylpropyl)piperazin-1-yl) nicotinamide] were less than 50 nM and 51 to 70%. In the case of `Cc1ncsc1-c1ccc([C@H](C)NC(=O)[C@@H]2C[C@@H](O)CN2C(=O)[C@@H](NC(=O)CN2C[C@H](C)N(CCCc3ccc(C(=O)N[C@H]4C(C)(C)[C@H](Oc5ccc(C#N)c(Cl)c5)C4(C)C)cc3)C[C@H]2C)C(C)(C)C)cc1` [Example 816, (2S,4R)-1-((S)-2-(2-((2R,5S)-4-(3-(4-(((1r, 3S)-3-(3-chloro-4-cyanophenoxy)-2,2,4,4-tetramethylcyclobutyl)carbamoyl)phenyl)propyl)-2,5-dimethylpiperazin-1-yl)acetamido)-3,3-dimethylbutanoyl)-4-hydroxy-N-((S)-1-(4-(4-methylthiazol-5-yl)phenyl)ethyl) pyrrolidine-2-carboxamide], the DC50 under setting [1] is less than 50 nM. Also, for the setting “VCaP, read-out: VCaP Dmax (%)”, the greatest degradation seen (Dmax) is more than 71%.

In the case of `Cc1ncsc1-c1ccc([C@H](C)NC(=O)[C@@H]2C[C@@H](O)CN2C(=O)[C@@H](NC(=O)CN2C[C@@H](C)N(CCCc3ccc(C(=O)N[C@H]4C(C)(C)[C@H](Oc5ccc(C#N)c(Cl)c5)C4(C)C)cc3)C[C@@H]2C)C(C)(C)C)cc1` [Example 817, (2S,4R)-1-((S)-2-(2-((2S,5R)-4-(3-(4-(((1r, 3R)-3-(3-chloro-4-cyanophenoxy)-2,2,4,4-tetramethylcyclobutyl)carbamoyl)phenyl)propyl)-2,5-dimethylpiperazin-1-yl)acetamido)-3,3-dimethylbutanoyl)-4-hydroxy-N-((S)-1-(4-(4-methylthiazol-5-yl)phenyl)ethyl) pyrrolidine-2-carboxamide], under setting [1], the 50% degradation concentration (DC50) was less than 50 nM. Further, the Dmax (VCaP, read-out: VCaP Dmax (%)) was more than 71%. With `Cc1ncsc1-c1ccc([C@H](C)NC(=O)[C@@H]2C[C@@H](O)CN2C(=O)[C@H](c2cc(CCCN3CCN(c4ccc(C(=O)N[C@H]5C(C)(C)[C@H](Oc6ccc(C#N)c(Cl)c6)C5(C)C)cn4)CC3)no2)C(C)C)cc1` [Example 818, N-((1r,3r)-3-(3-chloro-4-cyanophenoxy)-2,2,4,4-tetramethylcyclobutyl)-6-(4-(3-(5-((S)-1-((2S, 4R)-4-hydroxy-2-(((S)-1-(4-(4-methylthiazol-5-yl)phenyl)ethyl)carbamoyl)pyrrolidin-1-yl)-3-methyl-1-oxobutan-2-yl)isoxazol-3-yl)propyl)piperazin-1-yl) nicotinamide], under setting [1], the half-maximal degradation concentration (DC50) is more than 501 nM. Also, the Dmax under setting [2] was less than 25%.
